Literature values as cited in publication PMC12154284, “FYCO1 Peptide Analogs: Design and Characterization of Autophagy Inhibitors as Co-Adjuvants in Taxane Chemotherapy of Prostate Cancer” (International Journal of Molecular Sciences, 2025).

Biological target: LC3B
Conditions: eicosapeptide, ref [30]; cited from earlier work
From the text: This small protein sequence consists of four conserved residues that can be succinctly represented as a sequence of “X0–X1–X2–X3”, where X0 represents an aromatic residue (Trp/Phe/Tyr), X1 and X2 can denote any amino acids (often acidic or hydrophobic residues), and X3 signifies a large hydrophobic residue such as Leu, Val, or Ile. Consequently, the LIR domain can be considered a promising starting poi ... || To measure the dissociation constants (Kd) of the peptides on human recombinant His-tagged LC3B protein, MST experiments were carried out on a Monolith NT.115^Pico instrument (see the Materials and Methods section for details). […] The electrostatic interactions between the new peptides and LC3B’s positively charged surface—defined by the residues K49, K51, R69, and R70—correlated with low predicted ΔG* values, explaining their improved ...

RDDAV2DIITDEEαCQIQEW [Comb1]
Kd: 120 nM
